# Test results taken from PMC8795738, “The Tarantula Venom Peptide Eo1a Binds to the Domain II S3-S4 Extracellular Loop of Voltage-Gated Sodium Channel NaV1.8 to Enhance Activation” (Frontiers in Pharmacology, 2022).
# Where a SMILES comes first, the peptide text is derived from it. Bridges are numbered along the chain shown (N, C = ends).
# How the values were obtained:
# [1] = tested on: DRG neurons; assay: Calcium imaging of dorsal root ganglion (DRG) neurons; assay type: cell-based, mouse
# From the text: Adult male C57BL/6J mice aged 4–8 weeks were sourced from the Animal Resource Centre (Canning Vale, Western Australia). Adult male NaV1.8 knockouts ([Nassar et al., 2004]) (aged 8–11 weeks) and wild-type littermates were housed and tested at University College London. Animals were housed in groups of three or four per cage under 12-h light-dark cycles and were provided with standard rodent chow and water ad libitum. Ethical approval for experiments involving animals was obtained from The University of Queensland animal ethics committee (TRI/IMB/093/17, IMB/PACE/421/18) and the United Kingdom Home Office (project licence PPL 70/7382). All experiments were conducted in accordance with the International Association for the Study of Pain Guidelines for the Use of Animals in Research and the Australian Code of Practice for the Care and Use of Animals for Scientific Purposes, 8th edition (2013).
# For Ca^2+ imaging experiments, DRG neurons were isolated from 4 week old male C57BL/6J mice as previously described ([Robinson et al., 2018]). DRG neurons were dissociated and plated in 96-well poly-D-lysine-coated culture plates grown in Dulbecco’s modified Eagle’s medium supplemented with 10% fetal bovine serum (FBS) and penicillin/streptomycin and cultured for 24 h at 37°C with 5% CO2. Dissociated DRG neurons were loaded with Fluo-4 AM calcium indicator (5 μM) for 1 h, then washed with Hanks’ balanced salt solution (HBSS) containing 20 mM HEPES. Fluorescence was measured using a Nikon Ti-E Deconvolution inverted microscope, in conjunction with a Lumencor Spectra LED light source (excitation, 485 nm; emission, 521 nm). Images were acquired at 1 frame per s using a 20× objective. […] Only excitable cells responding to KCl were included for analysis. Cells were classified as responders if they had at least a 1.5-fold increase in fluorescence over baseline.
# [2] = biological target: T1, KV2.1 (Homo sapiens, UniProt Q14721); assay: KV2.1 currents, whole-cell patch-clamp; assay type: cell-based; conditions: Eo1a 10 μM, 5 min, HEK293, human KV2.1, n = 3
# T1 construct: expressed in transfected cells; host or cells: HEK293 cells stably expressing β1/β2, transient transfection with Lipofectamine 2000
# T1 sequence (Q14721 1-858): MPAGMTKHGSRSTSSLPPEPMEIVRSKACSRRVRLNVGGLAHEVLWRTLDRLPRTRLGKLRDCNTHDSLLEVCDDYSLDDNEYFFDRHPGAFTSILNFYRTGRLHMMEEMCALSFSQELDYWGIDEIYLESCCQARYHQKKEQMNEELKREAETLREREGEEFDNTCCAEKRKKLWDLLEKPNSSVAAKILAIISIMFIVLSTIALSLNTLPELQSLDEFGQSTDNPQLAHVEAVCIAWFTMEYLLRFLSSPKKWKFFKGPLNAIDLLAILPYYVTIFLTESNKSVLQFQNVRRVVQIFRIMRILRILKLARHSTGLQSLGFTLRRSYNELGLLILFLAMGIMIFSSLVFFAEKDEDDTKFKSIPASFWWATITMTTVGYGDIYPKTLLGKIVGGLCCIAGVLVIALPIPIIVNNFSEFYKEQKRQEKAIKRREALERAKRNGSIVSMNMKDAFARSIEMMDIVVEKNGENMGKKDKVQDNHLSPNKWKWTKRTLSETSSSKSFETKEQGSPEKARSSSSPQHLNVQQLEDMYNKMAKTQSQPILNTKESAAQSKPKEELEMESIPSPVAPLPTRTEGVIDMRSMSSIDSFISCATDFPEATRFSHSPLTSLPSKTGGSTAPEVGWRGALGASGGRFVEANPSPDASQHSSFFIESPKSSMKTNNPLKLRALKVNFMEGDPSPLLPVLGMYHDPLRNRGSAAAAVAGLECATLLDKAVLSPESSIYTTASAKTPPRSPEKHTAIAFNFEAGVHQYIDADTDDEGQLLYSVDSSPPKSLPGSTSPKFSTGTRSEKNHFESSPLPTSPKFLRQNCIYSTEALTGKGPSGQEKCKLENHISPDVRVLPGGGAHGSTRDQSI
# Method: Human Embryonic Kidney (HEK) 293 cells stably expressing human NaV1.1 to NaV1.7/β1 (SB Drug Discovery, Glasgow, United Kingdom), Chinese Hamster Ovary (CHO) cells stably expressing human NaV1.8/β3 in a tetracycline-inducible system (ChanTest, Cleveland, OH, United States), and HEK293 cells stably expressing rat transient receptor potential vanilloid 1 (TRPV1) were cultured as previously described ([Yin et al., 2020]). Human KV2.1 and NaV1.7 mutants were transiently transfected into HEK293 cells stably expressing β1/β2 using Lipofectamine 2000 (Thermo Fisher Scientific, Scoresby, VIC, Australia) and used for patch-clamp experiments 48 h after transfection. Cells were grown in an incubator at 37°C with 5% CO2 and passaged every 3–4 d (at 70–80% confluency) using TrypLE Express (Thermo Fisher Scientific).
# Automated whole-cell patch-clamp recordings were performed with a QPatch-16 automated electrophysiology platform (Sophion Bioscience, Ballerup, Denmark) using single-hole (QPlate 16 with a standard resistance of 2 ± 0.4 MΩ) or multi-hole (QPlate 16X with a standard resistance 0.2 ± 0.04 MΩ, NaV1.8 only) as previously described ([McMahon et al., 2020]).
# The extracellular solution (ECS) consisted of (in mM) 145 NaCl (replaced with 70 choline chloride for NaV1.4, NaV1.5 and NaV1.7), 4 KCl, 2 CaCl2, 1 MgCl2, 10 HEPES, and 10 glucose, pH to 7.4 with NaOH (adjusted to 305 mOsm/L with sucrose). For NaV recordings the intracellular solution (ICS) consisted of (in mM) 140 CsF, 1 EGTA, 5 CsOH, 10 HEPES, and 10 NaCl, pH to 7.3 with CsOH (adjusted to 320 mOsm/L with sucrose). For KV2.1 recordings the ICS consisted of (in mM) 50 KCl, 60 KF, 10 EGTA, 10 HEPES, 10 NaCl pH to 7.3 with KOH (adjusted to 320 mOsm/L with sucrose). TTX (1 μM) was added to the ECS for NaV1.8 recordings to inhibit background endogenous TTX sensitive current in CHO cells.
# KV2.1 currents were acquired using a holding potential of −80 mV and a 300 ms pulse to +50 mV every 20 s (0.05 Hz). Eo1a was incubated for 5 min and compared to buffer control.
compound,measurement,setting,value
"CC[C@H](C)[C@@H]1NC(=O)[C@H](CCCNC(=N)N)NC(=O)[C@@H]2CSSC[C@@H]3NC(=O)CNC(=O)CNC(=O)[C@H](CC(C)C)NC(=O)[C@H](Cc4ccccc4)NC(=O)[C@H](Cc4c[nH]c5ccccc45)NC(=O)[C@H](CCCNC(=N)N)NC(=O)[C@@H](NC(=O)[C@@H](N)CC(=O)O)CSSC[C@H](NC(=O)[C@H](CSSC[C@@H](C(=O)N[C@@H](C)C(=O)N[C@@H](Cc4c[nH]c5ccccc45)C(=O)N[C@@H](CC(=O)O)C(=O)NCC(=O)N[C@H](C(=O)N[C@@H](Cc4ccccc4)C(N)=O)[C@@H](C)O)NC(=O)[C@H](Cc4ccc(O)cc4)NC(=O)[C@H](CCCCN)NC(=O)[C@H]([C@@H](C)CC)NC(=O)[C@H](Cc4ccc(O)cc4)NC(=O)CNC(=O)[C@H](CC(=O)O)NC1=O)NC(=O)[C@H](CC(=O)O)NC(=O)[C@H](CO)NC(=O)[C@H](CC(=O)O)NC(=O)[C@H](CCCCN)NC(=O)[C@H](CO)NC3=O)C(=O)N[C@@H](CCCCN)C(=O)N[C@@H](Cc1c[nH]cn1)C(=O)N[C@@H](CC(C)C)C(=O)N[C@@H](C)C(=O)N2 [Eo1a] (H-DCRWFLGGCSKDSDCCKHLACRIDGYIKYCAWDGTF-NH2; disulfide 2-16, 9-21, 15-30 (inferred); N-terminus assumed)",neurons activated in the presence of TTX,"[1]; Eo1a 10 μM + TTX 1 μM, dissociated DRG neurons of C57BL/6J mice, Fluo-4, mean ± SEM of 2–3 wells",30 ± 2%
same,neurons with Ca2+ influx (activated),"[1]; Eo1a 10 μM, dissociated DRG neurons of C57BL/6J mice, Fluo-4, responder = at least 1.5-fold fluorescence increase, without TTX, mean ± SEM of 2–3 wells",44 ± 3%
same,size of activated neurons,"[1]; Eo1a 10 μM, n = 473 alone, n = 317 with TTX, distribution did not change with TTX",smaller size
same,τactivation of KV2.1,"[2]; 300 ms pulse to +50 mV, buffer 5.1 ± 0.4 ms",13.6 ± 2.7 ms
same,"late current size of KV2.1, I250 ms","[2]; holding −80 mV, 300 ms pulse to +50 mV, buffer 6.25 ± 0.9 nA",6.34 ± 0.9 nA
same,"KV2.1 late current, inhibitory activity",[2],no inhibitory activity
